The target in the assay is PDE10 (Mus musculus, UniProt Q8CA95). The experiment in a line: PDE10 enzyme inhibition (IMAP TR-FRET assay). It is filed as biochemical. To be noted: Table 8A. As for the experimental part:
MPDE10A7 Enzyme Activity and Inhibition
Enzyme Activity. An IMAP TR-FRET assay was used to analyze the enzyme activity (Molecular Devices Corp., Sunnyvale Calif.). 5 μL, of serial diluted PDE10A (BPS Bioscience, San Diego, Calif.) or tissue homogenate was incubated with equal volumes of diluted fluorescein labeled cAMP or cGMP for 60 min in 384-well polystyrene assay plates (Corning, Corning, N.Y.) at room temperature. After incubation, the reaction was stopped by adding 60 μL, of diluted binding reagents and was incubated for 3 hours to overnight at room temperature. The plates were read on an Envision (Perkin Elmer, Waltham, Mass.) for time resolved fluorescence resonance energy transfer. The data were analyzed with GraphPad Prism (La Jolla, Calif.).
Enzyme Inhibition. To check the inhibition profile, 5 μL of serial diluted compounds were incubated with 5 μL of diluted PDE10 enzyme (BPS Bioscience, San Diego, Calif.) or tissue homogenate in a 384-well polystyrene assay plate (Corning, Corning, N.Y.) for 30 min at room temperature. […] The reaction was stopped by adding 60 μL of diluted binding reagents and plates were read on an Envision (Perkin Elmer, Waltham, Mass.) for time resolved fluorescence resonance energy transfer. The data were analyzed with GraphPad Prism (La Jolla, Calif.).
A general note: TR-FRET usually uses a lanthanide donor and a delayed reading to cut background.

Our source for the IC50 values is patent US8497265B2, “Heteroaryloxyheterocyclyl compounds as PDE10 inhibitors” (Amgen Inc., priority 2010, dated 2013).

Chain of PDE10 (Q8CA95 whole entry, looked up): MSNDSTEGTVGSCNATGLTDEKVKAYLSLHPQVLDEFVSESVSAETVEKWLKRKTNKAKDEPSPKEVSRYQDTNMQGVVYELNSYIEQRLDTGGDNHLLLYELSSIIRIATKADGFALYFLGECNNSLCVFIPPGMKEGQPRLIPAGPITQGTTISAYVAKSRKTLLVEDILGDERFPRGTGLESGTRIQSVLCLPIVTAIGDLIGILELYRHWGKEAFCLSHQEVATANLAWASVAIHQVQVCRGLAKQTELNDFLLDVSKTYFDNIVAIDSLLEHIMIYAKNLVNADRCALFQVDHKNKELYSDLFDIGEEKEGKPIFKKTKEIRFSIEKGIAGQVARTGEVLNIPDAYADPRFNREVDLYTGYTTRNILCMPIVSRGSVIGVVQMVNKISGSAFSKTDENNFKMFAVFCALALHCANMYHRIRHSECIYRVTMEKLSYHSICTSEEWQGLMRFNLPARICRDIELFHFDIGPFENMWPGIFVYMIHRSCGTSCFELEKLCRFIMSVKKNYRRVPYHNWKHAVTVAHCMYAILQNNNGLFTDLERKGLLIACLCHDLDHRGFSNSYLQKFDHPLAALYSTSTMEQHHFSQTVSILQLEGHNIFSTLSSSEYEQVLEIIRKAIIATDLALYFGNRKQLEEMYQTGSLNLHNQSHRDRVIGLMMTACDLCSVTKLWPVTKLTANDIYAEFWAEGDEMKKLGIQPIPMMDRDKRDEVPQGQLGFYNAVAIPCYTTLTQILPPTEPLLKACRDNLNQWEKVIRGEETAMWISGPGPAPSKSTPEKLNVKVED

By IC50 is commonly meant the midpoint of a concentration-inhibition curve. The low end stands for greater potency, the high end for weaker potency. For “1-(4-(3-((1-(quinolin-2-yl)azetidin-3-yl)oxy)pyrazin-2-yl)phenyl)ethanone [Example 10.26]”, it took 24.4 nM to reach half-maximal inhibition (IC50).
